Tests used:
chickweed = assay: Test C postemergence; format: in vivo, Stellaria media
Procedure, shortened: (§1)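 Plants were kept under greenhouse conditions for 13–15 days following spray. Pre-emergent application went to soil (loam–sand), post-emergent to foliage at 1–4 leaves. Evaluation: visual, percent control against untreated checks.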

corn = assay: Test C postemergence; format: in vivo, Zea mays
Procedure, shortened: as §1

barnyardgrass [1] = assay: Test B flooded paddy test; format: in vivo, Echinochloa crus-galli; conditions: Flood, 250 g ai/ha, 0 to 100 scale where 0 is no effect and 100 is complete control
Procedure, shortened: (§2)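 Evaluation is visual, against untreated controls, 13 to 15 days after treatment. Before treatment, plants reached the 2-leaf stage; pots were then flooded 3 cm deep, compound was added to the water, and that level was maintained. Ratings run 0 to 100, with 100 meaning complete control.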

large (Lg) crabgrass [2] = assay: Test C preemergence; format: in vivo, Digitaria sanguinalis
Procedure, shortened: as §1

large (Lg) crabgrass [3] = assay: Test C postemergence; format: in vivo, Digitaria sanguinalis
Procedure, shortened: as §1

giant foxtail = assay: Test C postemergence; format: in vivo, Setaria faberii
Procedure, shortened: as §1

lambsquarters = assay: Test C postemergence; format: in vivo, Chenopodium album
Procedure, shortened: as §1

sedge, umbrella = assay: Test B flooded paddy test; format: in vivo, Cyperus difformis; conditions: Flood, 250 g ai/ha, 0 to 100 scale where 0 is no effect and 100 is complete control
Procedure, shortened: as §2

barnyardgrass [4] = assay: Test C postemergence; format: in vivo, Echinochloa crus-galli
Procedure, shortened: as §1

pigweed = assay: Test C preemergence; format: in vivo, Amaranthus retroflexus
Procedure, shortened: as §1

wheat, winter = assay: Test C postemergence; format: in vivo, Triticum aestivum
Procedure, shortened: as §1

waterhemp = assay: Test C postemergence; format: in vivo, Amaranthus rudis
Procedure, shortened: as §1

[5] = 16 g ai/ha, postemergence, visual rating, scale 0 to 100 (0 no effect, 100 complete control), 13 to 15 days
[6] = Postemergence, 31 g ai/ha, scale 0 to 100 (0 no effect, 100 complete control), 13 to 15 days
[7] = Postemergence, 62 g ai/ha, scale 0 to 100 (0 no effect, 100 complete control)
[8] = 16 g ai/ha, preemergence, scale 0 to 100 (0 no effect, 100 complete control)
[9] = 62 g ai/ha, preemergence, scale 0 (no effect) to 100 (complete control)
[10] = 125 g ai/ha, preemergence, scale 0 (no effect) to 100 (complete control)
[11] = Preemergence, 31 g ai/ha, scale 0 to 100, 0 no effect, 100 complete control

Structure (SMILES): FC(F)(F)COc1cnn(-c2ccccc2Oc2ncc(Cl)cn2)c1 [Compound 138, 5-chloro-2-[2-[4-(2,2,2-trifluoroethoxy)-1H-pyrazol-1-yl]phenoxy]pyrimidine]
- pest or weed control at 16 g/ha (chickweed; Stellaria media, post-emergence, 16 g ai/ha, postemergence, 0 is no effect, 100 is complete control, read-out: Plant response rating (0 to 100), Chickweed): 5%
- pest or weed control at 125 g/ha (chickweed; Stellaria media, post-emergence, 125 g ai/ha, postemergence, visual rating, scale 0 to 100 (0 no effect, 100 complete control), read-out: Plant response rating, Chickweed): 55%
- pest or weed control at 62 g/ha (chickweed; Stellaria media, post-emergence, Postemergence, 62 g ai/ha, scale 0 to 100 (0 no effect, 100 complete control), read-out: Plant response rating, Chickweed): 50%
- plant injury at 16 g/ha (corn; Zea mays, post-emergence, 16 g ai/ha, postemergence, 0 is no effect, 100 is complete control, read-out: Plant response rating (0 to 100), Corn): 5%
- Corn plant response rating (crop injury, 0 = no effect, 100 = complete kill) at 125 g/ha (corn; Zea mays, post-emergence, 125 g ai/ha, postemergence, visual rating, scale 0 to 100 (0 no effect, 100 complete control)): 10%
- Corn plant response rating (crop injury, 0 = no effect, 100 = complete kill) at 62 g/ha (corn; Zea mays, post-emergence, Postemergence, 62 g ai/ha, scale 0 to 100 (0 no effect, 100 complete control)): 5%
- pest or weed control at 250 g/ha (barnyardgrass [1]; Echinochloa crus-galli, read-out: Plant response rating, Barnyardgrass): 0%
- pest or weed control at 16 g/ha (large (Lg) crabgrass [2]; Digitaria sanguinalis, pre-emergence, 16 g ai/ha, preemergence, scale 0 to 100 (0 no effect, 100 complete control), read-out: Crabgrass, Large plant response rating): 100%
- pest or weed control at 62 g/ha (large (Lg) crabgrass [2]; Digitaria sanguinalis, pre-emergence, 62 g ai/ha, preemergence, scale 0 (no effect) to 100 (complete control), read-out: Crabgrass, Large plant response rating): 100%
- pest or weed control at 125 g/ha (large (Lg) crabgrass [2]; Digitaria sanguinalis, pre-emergence, 125 g ai/ha, preemergence, scale 0 (no effect) to 100 (complete control), read-out: Crabgrass, Large plant response rating): 100%
- pest or weed control at 31 g/ha (large (Lg) crabgrass [2]; Digitaria sanguinalis, pre-emergence, Preemergence, 31 g ai/ha, scale 0 to 100, 0 no effect, 100 complete control, read-out: Plant response rating, Crabgrass, Large): 90%
- pest or weed control at 16 g/ha (large (Lg) crabgrass [3]; Digitaria sanguinalis, post-emergence, 16 g ai/ha, postemergence, 0 is no effect, 100 is complete control, read-out: Plant response rating (0 to 100), Crabgrass, Large): 10%
- pest or weed control at 125 g/ha (large (Lg) crabgrass [3]; Digitaria sanguinalis, post-emergence, 125 g ai/ha, postemergence, visual rating, scale 0 to 100 (0 no effect, 100 complete control), read-out: Plant response rating, Crabgrass, Large): 15%
- pest or weed control at 62 g/ha (large (Lg) crabgrass [3]; Digitaria sanguinalis, post-emergence, Postemergence, 62 g ai/ha, scale 0 to 100 (0 no effect, 100 complete control), read-out: Plant response rating, Crabgrass, Large): 15%
- pest or weed control at 16 g/ha (giant foxtail; Setaria faberi, post-emergence, 16 g ai/ha, postemergence, 0 is no effect, 100 is complete control, read-out: Plant response rating (0 to 100), Foxtail, Giant): 5%
- pest or weed control at 125 g/ha (giant foxtail; Setaria faberi, post-emergence, 125 g ai/ha, postemergence, visual rating, scale 0 to 100 (0 no effect, 100 complete control), read-out: Plant response rating, Foxtail, Giant): 50%
- pest or weed control at 62 g/ha (giant foxtail; Setaria faberi, post-emergence, Postemergence, 62 g ai/ha, scale 0 to 100 (0 no effect, 100 complete control), read-out: Plant response rating, Foxtail, Giant): 10%
- pest or weed control at 16 g/ha (lambsquarters; Chenopodium album, post-emergence, 16 g ai/ha, postemergence, 0 is no effect, 100 is complete control, read-out: Plant response rating (0 to 100), Lambsquarters): 20%
- pest or weed control at 125 g/ha (lambsquarters; Chenopodium album, post-emergence, 125 g ai/ha, postemergence, visual rating, scale 0 to 100 (0 no effect, 100 complete control), read-out: Plant response rating, Lambsquarters): 75%
- pest or weed control at 62 g/ha (lambsquarters; Chenopodium album, post-emergence, Postemergence, 62 g ai/ha, scale 0 to 100 (0 no effect, 100 complete control), read-out: Plant response rating, Lambsquarters): 60%
- pest or weed control at 250 g/ha (sedge, umbrella; Cyperus difformis, read-out: Plant response rating, Sedge, Umbrella): 75%
- pest or weed control at 16 g/ha (barnyardgrass [4]; Echinochloa crus-galli, post-emergence, 16 g ai/ha, postemergence, 0 is no effect, 100 is complete control, read-out: Plant response rating (0 to 100), Barnyardgrass): 5%
- pest or weed control at 125 g/ha (barnyardgrass [4]; Echinochloa crus-galli, post-emergence, 125 g ai/ha, postemergence, visual rating, scale 0 to 100 (0 no effect, 100 complete control), read-out: Plant response rating, Barnyardgrass): 5%
- pest or weed control at 31 g/ha (barnyardgrass [4]; Echinochloa crus-galli, post-emergence, Postemergence, 31 g ai/ha, scale 0 to 100 (0 no effect, 100 complete control), 13 to 15 days, read-out: Plant response rating, Barnyardgrass): 5%
- pest or weed control at 62 g/ha (barnyardgrass [4]; Echinochloa crus-galli, post-emergence, Postemergence, 62 g ai/ha, scale 0 to 100 (0 no effect, 100 complete control), read-out: Plant response rating, Barnyardgrass): 5%
- pest or weed control at 16 g/ha (pigweed; Amaranthus retroflexus, pre-emergence, 16 g ai/ha, preemergence, scale 0 to 100 (0 no effect, 100 complete control), read-out: Pigweed plant response rating): 85%
- pest or weed control at 62 g/ha (pigweed; Amaranthus retroflexus, pre-emergence, 62 g ai/ha, preemergence, scale 0 (no effect) to 100 (complete control), read-out: Pigweed plant response rating): 100%
- pest or weed control at 125 g/ha (pigweed; Amaranthus retroflexus, pre-emergence, 125 g ai/ha, preemergence, scale 0 (no effect) to 100 (complete control), read-out: Pigweed plant response rating): 100%
- plant injury at 16 g/ha (wheat, winter; Triticum aestivum, post-emergence, 16 g ai/ha, postemergence, 0 is no effect, 100 is complete control, read-out: Plant response rating (0 to 100), Wheat): 0%
- plant injury at 125 g/ha (wheat, winter; Triticum aestivum, post-emergence, 125 g ai/ha, postemergence, visual rating, scale 0 to 100 (0 no effect, 100 complete control), read-out: Plant response rating, Wheat): 5%
- plant injury at 62 g/ha (wheat, winter; Triticum aestivum, post-emergence, Postemergence, 62 g ai/ha, scale 0 to 100 (0 no effect, 100 complete control), read-out: Plant response rating, Wheat): 0%
- pest or weed control at 16 g/ha (waterhemp; Amaranthus tuberculatus, post-emergence, 16 g ai/ha, postemergence, 0 is no effect, 100 is complete control, read-out: Plant response rating (0 to 100), Waterhemp): 60%
- pest or weed control at 125 g/ha (waterhemp; Amaranthus tuberculatus, post-emergence, 125 g ai/ha, postemergence, visual rating, scale 0 to 100 (0 no effect, 100 complete control), read-out: Plant response rating, Waterhemp): 85%
- pest or weed control at 62 g/ha (waterhemp; Amaranthus tuberculatus, post-emergence, Postemergence, 62 g ai/ha, scale 0 to 100 (0 no effect, 100 complete control), read-out: Plant response rating, Waterhemp): 75%

Structure (SMILES): FCc1cccc(Oc2ncc(Cl)cn2)c1-n1cc(Br)cn1 [Compound 83]
- Chickweed plant response rating (chickweed; [5]): 35
- Plant response rating (0 to 100), Chickweed (chickweed; 125 g ai/ha, postemergence): 70
- Plant response rating, Chickweed (chickweed; [6]): 40
- Plant response rating, Chickweed (chickweed; [7]): 60
- Corn plant response rating (corn; [5]): 0
- Plant response rating (0 to 100), Corn (corn; 125 g ai/ha, postemergence): 10
- Plant response rating, Corn (corn; [6]): 5
- Plant response rating, Corn (corn; [7]): 5
- Plant response rating, Barnyardgrass (barnyardgrass [1]): 0
- Crabgrass, Large plant response rating (large (Lg) crabgrass [2]; [8]): 65
- Crabgrass, Large plant response rating (large (Lg) crabgrass [2]; [9]): 100
- Crabgrass, Large plant response rating (large (Lg) crabgrass [2]; [10]): 100
- Plant response rating, Crabgrass, Large (large (Lg) crabgrass [2]; [11]): 85
- Crabgrass, Large plant response rating (large (Lg) crabgrass [3]; [5]): 5
- Plant response rating (0 to 100), Crabgrass, Large (large (Lg) crabgrass [3]; 125 g ai/ha, postemergence): 10
- Plant response rating, Crabgrass, Large (large (Lg) crabgrass [3]; [6]): 5
- Plant response rating, Crabgrass, Large (large (Lg) crabgrass [3]; [7]): 10
- Foxtail, Giant plant response rating (giant foxtail; [5]): 35
- Plant response rating (0 to 100), Foxtail, Giant (giant foxtail; 125 g ai/ha, postemergence): 40
- Plant response rating, Foxtail, Giant (giant foxtail; [6]): 35
- Plant response rating, Foxtail, Giant (giant foxtail; [7]): 10
- Plant response rating (0 to 100), Lambsquarters (lambsquarters; 125 g ai/ha, postemergence): 80
- Plant response rating, Lambsquarters (lambsquarters; [6]): 80
- Plant response rating, Lambsquarters (lambsquarters; [7]): 60
- Plant response rating, Sedge, Umbrella (sedge, umbrella): 45
- Barnyardgrass plant response rating (barnyardgrass [4]; [5]): 5
- Plant response rating (0 to 100), Barnyardgrass (barnyardgrass [4]; 125 g ai/ha, postemergence): 5
- Plant response rating, Barnyardgrass (barnyardgrass [4]; [6]): 5
- Plant response rating, Barnyardgrass (barnyardgrass [4]; [7]): 5
- Pigweed plant response rating (pigweed; [8]): 85
- Pigweed plant response rating (pigweed; [9]): 100
- Pigweed plant response rating (pigweed; [10]): 100
- Plant response rating, Pigweed (pigweed; [11]): 100
- Plant response rating (0 to 100), Wheat (wheat, winter; 125 g ai/ha, postemergence): 5
- Plant response rating, Wheat (wheat, winter; [6]): 0
- Plant response rating, Wheat (wheat, winter; [7]): 0
- Plant response rating (0 to 100), Waterhemp (waterhemp; 125 g ai/ha, postemergence): 90
- Plant response rating, Waterhemp (waterhemp; [6]): 50
- Plant response rating, Waterhemp (waterhemp; [7]): 70

— patent US9695155B2, “Herbicidal substituted pyrimidinyloxy benzene compounds” (E. I. DU PONT DE NEMOURS AND COMPANY, priority 2013, dated 2017)
